Like-named read-outs stand apart in the source and are kept apart here.
Tested on: poliovirus type 1 (Mahoney strain)
Type: cell-based
Details: 0.7% strength formaldehyde

**Q.** `C=O` [formaldehyde] was tested. Which virus concentration (exposure time 5 min) did it give?
**A.** The virus concentration was 1.05e+06 mL⁻¹.

**Q.** And the virus concentration (exposure time 15 min)?
**A.** Its virus concentration is 1000 mL⁻¹.

**Q.** And the virus concentration (exposure time 60 min)?
**A.** The virus concentration was at most 500 mL⁻¹.

Source: US8221733B2, “Virucidal disinfectant” (priority 2002, dated 2012)
